The record followed here is patent publication US4579951A (priority 1984, dated 1986).

The assay concerns cholera toxin-induced intestinal fluid secretion. As to the kind of experiment: animal or person. Type of assay: in vivo, rat (female Charles River). To be noted: for ED50: Rattus norvegicus, sc, read-out: Inhibitory Doses (ID50's); for Inhibitory Doses (ID50's): subcutaneous route, class symbol, screening doses 10 and 20 mg/kg.

The structures appear in SMILES notation. Counter-ions that a name gives are not always drawn.

With `COc1ccccc1C(=O)Oc1cccc(NC2=NCCC2)c1C.Cl` [Example 15, 3-[(3,4-dihydro-2H-pyrrol-5-yl)amino]-2-methylphenyl 2-methoxybenzoate hydrochloride], the ED50 worked out at 6.2 mg/kg. Still for that read-out and setting: to `Cc1ccc(C(=O)Oc2cccc(NC3=NCCC3)c2C)cc1.Cl` [Example 19, 3-[(3,4-dihydro-2H-pyrrol-5-yl)amino]-2-methylphenyl 4-methylbenzoate hydrochloride] belongs 5.9 mg/kg; to `Cc1c(NC2=NCCC2)cccc1OC(=O)c1ccc(Cl)c(Cl)c1.Cl` [Example 21, 3-[(3,4-dihydro-2H-pyrrol-5-yl)amino]-2-methylphenyl 3,4-dichlorobenzoate hydrochloride], 5 mg/kg. The same measure, in the same setting: to `Cc1c(NC2=NCCC2)cccc1OC(=O)C1CC1.Cl` [Example 22, 3-[(3,4-dihydro-2H-pyrrol-5-yl)amino]-2-methylphenyl cyclopropanecarboxylate hydrochloride] belongs 6.8 mg/kg. As for `COc1ccc(NC2=NCCC2)c(C)c1` [reference compound], the “Inhibitory Doses (ID50's)” value is on record as “I”.

Consider `Cc1cc(O)ccc1NC1=NCCC1` [Example 6, 4-[(3,4-dihydro-2H-pyrrol-5-yl)amino]-3-methylphenol 1/4 hydrate], for which the ED50 came out at 6.5 mg/kg.

In the case of `COC(=O)c1ccc(NC2=NCCC2)c(C)c1` [reference compound], the ED50 is 74 mg/kg. On to `Cc1c(NC2=NCCC2)cccc1OC(=O)c1ccco1` [Example 24, 3-[(3,4-dihydro-2H-pyrrol-5-yl)amino]-2-methylphenyl furan-2-carboxylate hydrochloride 1/8 methanol], for which the ED50 is 8.3 mg/kg.

Regarding `Cc1c(NC2=NCCC2)cccc1OC(=O)C1CCCCC1.Cl` [Example 14, 3-[(3,4-dihydro-2H-pyrrol-5-yl)amino]-2-methylphenyl cyclohexanecarboxylate hydrochloride], the ED50 was found to be 8.1 mg/kg. `COc1cccc(NC2=NCCC2)c1C` [reference compound]: the “Inhibitory Doses (ID50's)” value was “I”.

With `Cc1c(O)cccc1NC1=NCCC1.Cl` [Example 3, 3-[(3,4-dihydro-2H-pyrrol-5-yl)amino]-2-methylphenol hydrochloride], the ED50 worked out at 8.3 mg/kg.

As to `CC(=O)Oc1cccc(NC2=NCCC2)c1C.Cl` [Example 16, 3-[(3,4-dihydro-2H-pyrrol-5-yl)amino]-2-methylphenyl acetate hydrochloride], the ED50 turned out to be 10.1 mg/kg. Same read-out and setting: to `Cc1c(NC2=NCCC2)cccc1OC(=O)c1ccccc1` [Example 12, 3-[(3,4-dihydro-2H-pyrrol-5-yl)amino]-2-methylphenyl benzoate hydrobromide 1/4 hydrate] belongs 5.7 mg/kg; to `Cc1c(NC2=NCCC2)cccc1OC(=O)C(C)(C)C` [Example 10, 3-[(3,4-dihydro-2H-pyrrol-5-yl)amino]-2-methylphenyl 2,2-dimethylpropanoatehydrochloride 1/4 hydrate], 6.4 mg/kg; to `Cc1ccccc1C(=O)Oc1cccc(NC2=NCCC2)c1C.Cl` [Example 18, 3-[(3,4-dihydro-2H-pyrrol-5-yl)amino]-2-methylphenyl 2-methylbenzoate hydrochloride], 40.5 mg/kg. With `Oc1cccc(NC2=NCCC2)c1` [Example 5, 3-[3,4-dihydro-2H-pyrrol-5-yl)amino]phenol hydrochloride], the ED50 is 21.3 mg/kg. Regarding `CN=C(N)NC(=O)Nc1c(C)cccc1C` [Lidamidine, reference compound], the “activity in the cholera-induced intestinal fluid secretion assay (in words)” value (antisecretory antidiarrheal activity, qualitative statement) is recorded as “active”. On to `COc1ccc(C(=O)Oc2cccc(NC3=NCCC3)c2C)cc1` [Example 17, 3-[(3,4-dihydro-2H-pyrrol-5-yl)amino]-2-methylphenyl 4-methoxybenzoate hydrochloride 5/8 hydrate], for which the ED50 was 9.5 mg/kg. Same read-out and setting: to `Cc1c(NC2=NCCC2)cccc1OC(=O)c1ccc(Cl)cc1` [Example 20, 3-[(3,4-dihydro-2H-pyrrol-5-yl)amino]-2-methylphenyl 4-chlorobenzoate hydrochloride 1/4 ethanol] belongs 10.6 mg/kg; to `Cc1cc(OC(=O)C(C)(C)C)ccc1NC1=NCCC1` [Example 11, 4-[(3,4-dihydro-2H-pyrrol-5-yl)amino]-3-methylphenyl 2,2-dimethylpropanoatehydrochloride], 9 mg/kg. The same measure, in the same setting: under `Cc1c(NC2=NCCC2)cccc1OC(=O)C12CC3CC(CC(C3)C1)C2` [Example 23, 3-[(3,4-dihydro-2H-pyrrol-5-yl)amino]-2-methylphenyl adamantane-1-carboxylate hydrochloride 1/4 hydrate] stands 9.1 mg/kg.
